Assay results published in patent US20260325464A1, “COMPOSITIONS FOR MODULATING THE EXPRESSION OF AQUAPORINS IN NEURODEGENERATIVE DISORDERS” (priority 2023, published 2026).

Columns and labels:
Type in all cases: in vivo, rat
[1] = tested on: BDNF; test: BDNF level in brain homogenate (ELISA), AlCl3 Alzheimer's model; details: for BDNF: p.o. + AlCl3 (100 mg/kg, i.p.), brain homogenate, Mean ± SEM, n = 6
Source text: Brain-derived neurotrophic factors (BDNFs) play an important role in maintaining synaptic plasticity in learning and memory. Depletion of BDNF has been linked with Aβ accumulation, tau phosphorylation, neuroinflammation and neuronal apoptosis. Considering AD as a synaptic disorder, BDNF has attracted increasing attention as a potential diagnostic biomarker and a therapeutical molecule for AD. In the current study, BDNF levels were determiner using ELISA kit (Krishgen Biosystems, India).

[2] = tested on: Parkinson's disease; test: Open field test in rats with reserpine-induced Parkinson's disease; details: for Freezing / Number of central explorations / Number of squares crossed: p.o. + Reserpine (4 mg/kg, s.c.), open field, Mean ± SEM, n = 6
Source text: (§1) The induction of Parkinson's disease and measurement of other parameters were done as per the reported protocol (Santos et al., Cognitive, motor and tyrosine hydroxylase temporal impairment in a model of parkinsonism induced by reserpine. Behav Brain Res. 2013; 253:68-77 and Shishehbore et al. A novel kinetic spectrophotometric method for the determination of dopamine in biological and pharmaceutical samples. J Chem. 2013; 2013:1-6). Induction of Parkinson's disease was done by administering Resperine, which inhibits the monoamine vesicular transporters, thus decreasing the levels of monoamine neurotransmitters in the brain. Following pretreatment for 14 days with Gingerenone A, the rat groups received subcutaneous injections of reserpine (4 mg/kg) for the final five days of the treatment regimen. Resperine (5 mg) was dissolved in 1 ml of 1% acetic acid and then diluted tenfold with distilled water to achieve a final concentration of 500 μg/ml. The normal control group received saline with 1% acetic acid […], administered from day 10 to day 14. Thirty minutes following the administration of reserpine on the 14th day, behavioural assessments were conducted using the Open Field test, Y Maze, and Catalepsy tests to evaluate changes. Rats administered with Carbidopa, a known drug for the management of Parkinson's disease was also used for comparison. Upon completion of the study, brains were harvested for biochemical analyses and histopathological studies. The experimental group is depicted in table 10.
Open filed test—The test was conducted as per protocol described by Saleem et al., Pharmacological Potential of the Standardized Methanolic Extract of Prunus armeniaca L. in the Haloperidol-Induced Parkinsonism Rat Model. Evid Based Complement Alternat Med. 2022:29; 3697522. doi: 10.1155/2022/3697522. This test was conducted to assess the locomotor and exploratory behaviors of the experimental rats. A square-shaped wooden box measuring 100 cm in width, 100 cm in […], and 45 cm in height was constructed using plywood material, painted white, with a black-lined floor divided into 25 blocks. The rats were placed in the center of the field for a duration of 5 minutes and allowed to explore the box freely. The number of squares crossed, both centrally and horizontally, along with the total number of crossings, instances of defecation, freezing behavior, and postures were recorded during this period. Normal animals readily and quickly acclimate to the chamber and try to explore the center area of the squares.

[3] = tested on: Parkinson's disease; test: Catalepsy test in rats with reserpine-induced Parkinson's disease; parameters: catalepsy score at 30 min / catalepsy score at 60 min / catalepsy score at 120 min: unit not given here; details: for catalepsy score at 30 min / catalepsy score at 60 min / catalepsy score at 120 min: p.o. + Reserpine (4 mg/kg, s.c.), Mean ± SEM, n = 6
Source text: as §1
NeuroMol Med. 202022(2):314-330. Catalepsy in rats' manifests as an unresponsiveness to external stimuli accompanied by muscle rigidity. During the catalepsy test, rats were positioned on a wooden bar elevated 3-9 cm above the surface, with their forelimbs resting on it after administration of reserpine. The time taken for the rats to correct their posture was recorded as an indicator of catalepsy. Catalepsy ceased either when the rats climbed up the bar or when their forelimbs touched the floor. Observations were made at 30, 60, and 120 minutes after administration. All assessments were conducted in a quiet environment at a temperature of 23-25 degrees Celsius, with a maximum observation time of 5 minutes per trial.

[4] = tested on: Dopamine; test: Dopamine in brain (kinetic spectrophotometric), reserpine Parkinson's model; details: for Dopamine: p.o. + Reserpine (4 mg/kg, s.c.), brain, Mean ± SEM, n = 6
Source text: as §1, with “Rats administered with Carbidopa, a known drug for the management of Parkinson's disease was also used for comparison.” left out
Dopamine—Studies have shown that symptoms of Parkinson's develop in patients with an 80 percent or greater loss of dopamine-producing cells in the substantia nigra. Normally, dopamine operates in a delicate balance with other neurotransmitters to help coordinate the millions of nerve and muscle cells involved in movement. Neurons of the substantia nigra communicate with neurons of the basal ganglia by liberating the neurotransmitter dopamine (DA). Such an interaction at the biochemical level is responsible for the fine tuning of the movements. The proposed method for the estimation of dopamine is based on inhibitory effect of dopamine on the oxidation of thionine by bromate in acidic media. The change in absorbance was recorded spectrophotometrically at 601 nm (Shishehbore et al., Novel Kinetic Spectrophotometric Method for the Determination of Dopamine in Biological and Pharmaceutical Samples. 2013. Article ID 819460, https://doi.org/10.1155/2013/819460).

## COc1cc(CC/C=C/C(=O)CCc2ccc(O)c(OC)c2)ccc1O [Gingerenone A]
[1]; 5 mg/kg
  BDNF: 29.36 ± 1.09 pg/mL
[1]; 10 mg/kg
  BDNF: 36.07 ± 1.54 pg/mL
[1]; 20 mg/kg
  BDNF: 38.76 ± 2.05 pg/mL
[1]; AlCl3 model, Table 6
  levels of BDNF (in words): significantly increased the levels of BDNF
[2]; 5 mg/kg
  Freezing: 15.29 ± 0.35 s
  Number of central explorations: 12.57 ± 1.05
  Number of squares crossed: 21.62 ± 2.47
[2]; 10 mg/kg
  Freezing: 10.38 ± 0.62 s
  Number of central explorations: 17.34 ± 1.20
  Number of squares crossed: 27.45 ± 2.06
[2]; 20 mg/kg
  Freezing: 9.02 ± 0.45 s
  Number of central explorations: 17.27 ± 0.98
  Number of squares crossed: 26.26 ± 2.27
[2]; reserpine model, Table 11
  locomotory and exploratory behaviors (in words): significantly improved the behavior
[3]; 5 mg/kg
  catalepsy score at 30 min: 2.46 ± 0.15
  catalepsy score at 60 min: 2.52 ± 0.54
  catalepsy score at 120 min: 2.43 ± 0.70
[3]; 10 mg/kg
  catalepsy score at 30 min: 1.76 ± 0.11
  catalepsy score at 60 min: 1.72 ± 0.73
  catalepsy score at 120 min: 1.71 ± 0.75
[3]; 20 mg/kg
  catalepsy score at 30 min: 1.58 ± 0.16
  catalepsy score at 60 min: 1.55 ± 0.32
  catalepsy score at 120 min: 1.50 ± 0.82
[3]; reserpine model, Table 13
  muscle rigidity in catalepsy test (in words): significantly improved muscle rigidity
[4]; 5 mg/kg
  Dopamine: 0.124 ± 0.007 µg/mL
[4]; 10 mg/kg
  Dopamine: 0.142 ± 0.011 µg/mL
[4]; 20 mg/kg
  Dopamine: 0.141 ± 0.011 µg/mL
[4]; reserpine model, Table 14
  dopamine levels (in words): increased
